Data from ChEMBL document CHEMBL1909046, “DrugMatrix in vitro pharmacology data”.

Columns and labels:
[1] = DRUGMATRIX: Imidazoline I2, Central radioligand binding (ligand: [3H] Idazoxan); type: cell membranes, Rattus norvegicus, Wistar, Cerebral cortex, Membrane; settings: Not Active = under 50% inhibition at 10 µM
[2] = biological target: T1, Estrogen receptor (Homo sapiens, UniProt P03372); settings: sf9; note: in other assays of this panel Not Active means under 50% inhibition at 10 µM
T1 sequence (P03372 whole entry): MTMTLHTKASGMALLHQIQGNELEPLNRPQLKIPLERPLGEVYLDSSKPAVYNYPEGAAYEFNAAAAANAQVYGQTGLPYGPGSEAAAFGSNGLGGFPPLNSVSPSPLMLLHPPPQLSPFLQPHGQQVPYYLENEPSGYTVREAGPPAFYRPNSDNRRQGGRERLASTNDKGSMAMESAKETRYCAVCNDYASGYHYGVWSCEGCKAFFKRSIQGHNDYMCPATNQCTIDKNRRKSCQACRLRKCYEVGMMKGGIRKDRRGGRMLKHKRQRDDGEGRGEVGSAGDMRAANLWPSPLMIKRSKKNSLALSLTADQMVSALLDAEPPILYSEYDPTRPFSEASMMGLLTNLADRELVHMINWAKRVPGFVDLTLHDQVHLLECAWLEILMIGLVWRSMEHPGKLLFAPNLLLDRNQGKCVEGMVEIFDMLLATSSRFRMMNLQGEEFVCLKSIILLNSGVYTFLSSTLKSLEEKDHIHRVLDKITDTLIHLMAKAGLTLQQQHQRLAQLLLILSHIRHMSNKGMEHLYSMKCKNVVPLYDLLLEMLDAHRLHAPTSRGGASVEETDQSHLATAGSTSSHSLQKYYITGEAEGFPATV

[3] = biological target: Cytochrome P450 2C9 (Homo sapiens, UniProt P11712); settings: bti-tn-5b1-4; note: in other assays of this panel Not Active means under 50% inhibition at 10 µM
Chain of Cytochrome P450 2C9 (P11712 whole entry): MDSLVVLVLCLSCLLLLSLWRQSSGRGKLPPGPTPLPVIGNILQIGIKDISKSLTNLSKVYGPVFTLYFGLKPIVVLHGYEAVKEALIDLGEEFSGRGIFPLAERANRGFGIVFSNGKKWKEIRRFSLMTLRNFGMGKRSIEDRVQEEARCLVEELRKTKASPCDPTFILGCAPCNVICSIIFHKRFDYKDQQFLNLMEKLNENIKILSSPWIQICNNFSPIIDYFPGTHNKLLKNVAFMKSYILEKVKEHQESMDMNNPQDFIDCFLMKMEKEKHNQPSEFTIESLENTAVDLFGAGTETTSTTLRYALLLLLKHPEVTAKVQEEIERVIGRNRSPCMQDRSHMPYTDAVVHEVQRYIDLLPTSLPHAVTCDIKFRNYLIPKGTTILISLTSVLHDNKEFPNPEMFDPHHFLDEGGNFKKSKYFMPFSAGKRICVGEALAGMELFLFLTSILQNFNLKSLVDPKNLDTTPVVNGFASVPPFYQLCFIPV

[4] = DRUGMATRIX: Glutamate, NMDA, Phencyclidine radioligand binding (ligand: [3H] TCP); type: cell membranes, Rattus norvegicus, Wistar, Cerebral cortex, Membrane; settings: Not Active = under 50% inhibition at 10 µM
[5] = DRUGMATRIX: Glutamate, Kainate radioligand binding (ligand: [3H] Kainic acid); type: cell membranes, Rattus norvegicus, Wistar, Brain, Membrane; settings: Not Active = under 50% inhibition at 10 µM
[6] = DRUGMATRIX: Glutamate, AMPA radioligand binding (ligand: [3H] AMPA); type: cell membranes, Rattus norvegicus, Wistar, Cerebral cortex, Membrane; settings: Not Active = under 50% inhibition at 10 µM
[7] = biological target: Mu-type opioid receptor (Homo sapiens, UniProt P35372); test: DRUGMATRIX: Opiate mu (OP3, MOP) radioligand binding (ligand: [3H] Diprenorphine); type: cell membranes, CHO-K1, Membrane; settings: cho-k1; Not Active = under 50% inhibition at 10 µM
Chain of Mu-type opioid receptor (P35372 whole entry): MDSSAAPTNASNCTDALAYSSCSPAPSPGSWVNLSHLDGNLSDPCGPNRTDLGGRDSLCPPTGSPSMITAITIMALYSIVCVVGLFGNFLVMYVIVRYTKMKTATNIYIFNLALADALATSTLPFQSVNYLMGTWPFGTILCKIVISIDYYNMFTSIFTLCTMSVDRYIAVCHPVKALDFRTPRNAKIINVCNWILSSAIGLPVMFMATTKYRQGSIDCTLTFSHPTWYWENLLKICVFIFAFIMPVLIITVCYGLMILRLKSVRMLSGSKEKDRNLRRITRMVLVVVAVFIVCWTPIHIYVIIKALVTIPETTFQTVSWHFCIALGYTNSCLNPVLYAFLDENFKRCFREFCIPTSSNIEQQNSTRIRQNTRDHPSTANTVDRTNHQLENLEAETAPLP

[8] = biological target: Sodium-dependent dopamine transporter (Homo sapiens, UniProt Q01959); test: DRUGMATRIX: Dopamine Transporter radioligand binding (ligand: [125I] RTI-55); type: cell membranes, CHO-K1, Membrane; settings: cho-k1; Not Active = under 50% inhibition at 10 µM
Chain of Sodium-dependent dopamine transporter (Q01959 whole entry): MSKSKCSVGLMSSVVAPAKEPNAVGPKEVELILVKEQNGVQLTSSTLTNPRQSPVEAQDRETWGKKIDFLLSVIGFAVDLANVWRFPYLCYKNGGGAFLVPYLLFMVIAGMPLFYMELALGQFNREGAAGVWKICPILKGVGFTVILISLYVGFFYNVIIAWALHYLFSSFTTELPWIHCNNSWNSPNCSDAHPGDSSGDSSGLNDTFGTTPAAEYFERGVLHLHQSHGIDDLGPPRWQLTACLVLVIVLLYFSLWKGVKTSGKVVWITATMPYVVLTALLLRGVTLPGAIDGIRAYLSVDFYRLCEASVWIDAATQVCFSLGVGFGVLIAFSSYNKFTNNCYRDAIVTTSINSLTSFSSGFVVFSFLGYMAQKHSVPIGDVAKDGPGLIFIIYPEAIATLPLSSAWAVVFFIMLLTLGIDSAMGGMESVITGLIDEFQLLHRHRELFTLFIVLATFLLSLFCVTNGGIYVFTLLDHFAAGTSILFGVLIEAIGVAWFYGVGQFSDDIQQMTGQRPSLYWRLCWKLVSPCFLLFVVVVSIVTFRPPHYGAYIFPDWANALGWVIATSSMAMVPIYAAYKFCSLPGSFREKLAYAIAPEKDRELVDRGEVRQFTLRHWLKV

Cc1ccc(C(=O)c2ccc(CC(=O)O)n2C)cc1 [TOLMETIN]
Not Active: IC50 [1] | Ki [1] | IC50 [2] | IC50 [3] | Ki [3] | IC50 [4] | Ki [4] | IC50 [5] | Ki [5] | IC50 [6] | Ki [6] | IC50 [7] | IC50 [8]
